Experimental data published in patent US20260373093A1, “TIMESCALE-GUIDED MICROFLUIDIC SYNTHESIS OF POLYPHENOL-IRON III NETWORK NANOCAPSULES OF HYDROPHOBIC DRUGS” (Purdue Research Foundation, priority 2023, published 2026).
Several values for one entry are separate records, joined by “and”; a condition that tells them apart may be missing. Identical values can stand only once. Like-named read-outs stand apart in the source and are kept apart here.

Columns and labels:
Pa03C cells = experiment: MTT cytotoxicity, Pa03C cells; assay type: cell-based; conditions: for cell viability: 1440 min
Description: Pa03C cells were seeded in 96-well plates at a density of 4000 cells per well and allowed to adhere for 24 hours. Cells were incubated with drug-free nanocapsules (pEGCGs), free paclitaxel, or EFN nanocapsules of paclitaxel at concentrations ranging from 0.001 to 10 µg/mL calculated by paclitaxel content at 37 °C and 5% CO2 for 24 hr. After the incubation, the cells were washed with PBS 3 times, and 100 μL fresh medium was added to each well. Then, cells were cultured for […] another 24 hours. After incubation, 100 μL fresh medium was changed to each well, and 10 μL MTT was added to each well, followed by a 4 h incubation for cleavage at 37 °C. Then 100 μL isopropanol with 0.04 N HCl was added to each well and mixed thoroughly with the medium by repeated pipetting. The result was read with a test wavelength of 570 nm and a reference wavelength of 630 nm using a Microplate Spectrophotometer. Experiments were performed in triplicate and presented as means±SD.

[1] = cited from earlier work
PANC-1 cells = experiment: MTT cytotoxicity, PANC-1 cells (VPX); assay type: cell-based, human; conditions: 24 hr
Description: (§1) PANC-1 cells were seeded in 96-well plates at a density of 5000 cells per well and allowed to adhere for 24 hours. CAF19 cells were seeded in 96-well plates at a density of 1500 cells per well and allowed to adhere for 24 hours. Cells were incubated with drug-free nanocapsules (pTAs), free drug of VPX, or TFN nanocapsules of VPX at the concentrations ranging from 0.05 to 20 μM calculated by VPX content at 37 °C and 5% CO2 for 24 hr. After the incubation, the cells were washed with PBS 3 times, and 100 μL fresh medium was added to each well. Cells were cultured for another 24 hours. After incubation, 100 μL fresh medium was changed to each well, and 10 μL MTT was added to each well, followed by 4 hr incubation for cleavage at 37 °C. Then 100 μL isopropanol with 0.04 N HCl was added to each well and mixed thoroughly with the medium by repeated pipetting. The result was read with a test wavelength of 570 nm and a reference wavelength of 630 nm using a Microplate Spectrophotometer. Experiments were performed in triplicate and presented as means±SD.

CAF19 cells = experiment: MTT cytotoxicity, CAF19 cells (VPX); assay type: cell-based; conditions: 24 hr
Description: as §1

Pancl cells = experiment: MTT cytotoxicity, Panc1 cells (curcumin); assay type: cell-based, human; conditions: dosages >40 μM
Description: Panc 10.05 or Pancl cells were seeded in 96-well plates at a density of 5,000 cells per well and allowed to adhere overnight. Panc10.05 cells were incubated with drug-free nanocapsules (pTAs), free paclitaxel, or TFN nanocapsules of paclitaxel at the concentrations ranging from 0.001 to 10 μg mL^−1 calculated by paclitaxel content at 37 °C and 5% CO2 for 24 hr. Pancl cells were incubated with pTAs, free curcumin, or TFN nanocapsules of curcumin at the concentration of 5-160 μM calculated by curcumin content at 37 °C and 5% CO2 for 48 hr. After the incubation, the cells were washed with PBS three times, and 100 μL fresh medium was added to each well. Then cells were cultured for another 24 hours. After incubation, 100 μL fresh medium was added to each well, and 10 μL MTT was added to each well, followed by a 4 h incubation for cleavage at 37 °C. Then 100 μL isopropanol with 0.04 N HCl was added to each well and mixed thoroughly with the medium by repeated pipetting. The result was read with a test wavelength of 570 nm and a reference wavelength of 630 nm using a Microplate Spectrophotometer. Experiments were performed in triplicate and presented as means±SD.

## O=C(O[C@@H]1Cc2c(O)cc(O)cc2O[C@@H]1c1cc(O)c(O)c(O)c1)c1cc(O)c(O)c(O)c1 [EGCG, epigallocatechin-3-gallate]
Pa03C cells; EGCG on its own (from EFN cytotoxicity test)
  anticancer activity: significant anticancer activity

## C=C1CC[C@H](O)C/C1=C/C=C1\CCC[C@]2(C)[C@@H]([C@H](C)CCCC(C)C)CC[C@@H]12 [VD3, vitamin D]
[1]; room temperature
  water solubility: < 1 ng/mL

## CCOC(=O)N[C@@H]1CC[C@@H]2[C@@H](C1)C[C@H]1C(=O)O[C@H](C)[C@H]1[C@H]2/C=C/c1ccc(-c2cccc(F)c2)cn1 [VPX, vorapaxar]
PANC-1 cells; VPX treatment up to 20 μM
  cell viability: above 100%
PANC-1 cells; up to 20 μM (VPX content)
  toxicity: no toxicity
CAF19 cells; VPX treatment up to 20 μM
  cell viability: above 100%
CAF19 cells; up to 20 μM (VPX content)
  toxicity: no toxicity
[1]; VPX
  water solubility: 1.4 μg/mL and ~ 3 μM

## CC(=O)O[C@H]1C(=O)[C@@]2(C)[C@H]([C@H](OC(=O)c3ccccc3)[C@]3(O)C[C@H](OC(=O)[C@H](O)[C@@H](NC(=O)c4ccccc4)c4ccccc4)C(C)=C1C3(C)C)[C@]1(OC(C)=O)CO[C@@H]1C[C@@H]2O [free PTX, paclitaxel]
[1]; water
  water solubility: > 1000 ng/mL
Pa03C cells; PTX dosages >0.1 g/mL
  cell viability: ~ 50%
Pa03C cells; dosages of 1-10 μg/mL
  cell viability: ~ 50%

## COc1cc(/C=C/C(=O)CC(=O)/C=C/c2ccc(O)c(OC)c2)ccc1O [free curcumin, curcumin]
Pancl cells
  suppression of cell growth: significant suppression of Pancl growth
